Publication PMC11187542, “Identification of fragments targeting SMYD3 using highly sensitive kinetic and multiplexed biosensor-based screening” (RSC Medicinal Chemistry, 2024)

Target: T1, SMYD3 (apo, native) (Homo sapiens, UniProt Q9H7B4)
T1 construct: Full length recombinant SMYD3 was produced as previously reported; made in house; host or cells: E. coli BL21(DE3), in some cases Rosetta 2
T1 sequence (Q9H7B4 1-428): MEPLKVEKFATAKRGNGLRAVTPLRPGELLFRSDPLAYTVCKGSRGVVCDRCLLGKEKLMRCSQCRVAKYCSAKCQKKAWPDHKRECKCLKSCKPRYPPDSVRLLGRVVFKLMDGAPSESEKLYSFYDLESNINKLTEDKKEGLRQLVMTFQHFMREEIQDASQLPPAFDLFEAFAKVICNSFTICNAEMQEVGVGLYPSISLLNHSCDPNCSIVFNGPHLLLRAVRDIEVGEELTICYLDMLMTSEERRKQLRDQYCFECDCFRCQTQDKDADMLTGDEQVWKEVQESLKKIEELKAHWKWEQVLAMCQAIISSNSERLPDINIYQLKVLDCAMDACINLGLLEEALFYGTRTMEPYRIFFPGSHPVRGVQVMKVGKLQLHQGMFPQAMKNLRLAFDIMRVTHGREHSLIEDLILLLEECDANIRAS
Experiment: GCI biosensor kinetic screening, apo SMYD3 surface
Assay type: binding
Source text: A multiplexed screening assay was set up with three different SMYD3 surfaces and a blank reference surface in flow channels 1–4 (FC1–FC4) (Fig. 2a), as described previously.[5] The apo SMYD3 surface detected fragments interacting anywhere on SMYD3, while a SMYD3 surface blocked by active site-specific tight-binding inhibitor EPZ031686 detected compounds binding elsewhere. The denatured surface served as a reference, detecting fragments binding to unfolded proteins, also potentially present to a significant degree in the other two surfaces.
After preparing the sensor surface and immobilising SMYD3, the functionality of the surface was assessed via analysis of interactions with the co-factor product S-adenosyl-homocysteine (SAH). It was used as a control in all experiments, confirming that sensor surfaces were intact. This was done using the novel multiple injection-based experimental design (Fig. 1) at 25 μM, i.e. in a weak binder mode (Fig. 2b).
The library was screened using the approach described in Fig. 1, i.e. injection of fragments at 250 μM for increasing durations of time in a single cycle, using a flow rate of 100 μL min^−1, data acquisition set to 40 Hz and with an association time of 5 s and dissociation of 20 s. Each fragment was addressed to all four channels and interactions with the native and blocked surfaces compared. The experimental conditions were chosen to ensure that the assay could reliably characterize the fast and transient interactions expected from typical fragments.
The kinetic screening of 1056 compounds was successfully completed in 72 hours. […] Hits were identified with full kinetic information using dissociation phases.
All interaction kinetic experiments were conducted with a GCI–flow-based biosensor (WAVEdelta, Creoptix AG/Malvern Panalytical) and PCH WAVEchip (Creoptix AG/Malvern Panalytical) sensor chips. The sensor chips were conditioned using injections of borate buffer (10 mM sodium tetraborate pH 8.5, 1 M NaCl). The running buffer composition, if not otherwise stated, was TBS buffer (50 mM Tris, 150 mM NaCl, 0.5 mM TCEP, 0.05% Tween 20, 1% DMSO, pH 8). SMYD3 was diluted to the desired concentration in 10 mM bis-Tris (pH 7.0) and amine coupled to the sensor surface of the PCH sensor chip. The sensor chip was functionalized at 25 °C by immobilising SMYD3 with EDC and NHS (Xantec) using an injection time of 420 s and a flow rate of 10 μL min^−1. The immobilisation levels ranged from 5000 pg mm^−2 to 18 500 pg mm^−2 surface mass to enable analysis of fragments spanning a broad range of affinities. After immobilization, the surface was deactivated with a running buffer containing 50 mM Tris for 420 s. The GCI data referencing and analysis were performed using WAVEcontrol V4.5 (Creoptix AG).
Kinetic measurements with controls and fragments were performed at 15 °C. Analysis of controls and follow up of hits was done using the multi cycle kinetic (MCK) injection of a concentration series for the same time, with a two-fold serial dilution starting at 250 μM for each compound. Solvent correction was performed ranging from 0.5–1.8% DMSO. Blank samples of the running buffer, 1× TBS (50 mM Tris, 150 mM NaCl, 0.5 mM TCEP, 0.05% Tween 20, 1% DMSO, pH 8), were injected during the measurements every fifth cycle. The experimental design illustrated in Fig. 1 was used for the screening against all four surfaces. The sensorgrams were adjusted to account for solvent correction and blank subtraction. Kinetic fitting was performed with the Direct Kinetics engine of WAVEcontrol software V4.5 (Creoptix AG) with a suitable fitting model.

Cn1cnc(S(N)(=O)=O)c1 [FL06268]
LE (ligand efficiency) (LE = −RT ln(KD)/n): 0.63 (kcal^-1 mol^-1)/HA
Kd (initial kinetic screening, fragment 250 μM, 15 °C): 24.5 µM
kd (initial kinetic screening, fragment 250 μM, 15 °C, 1:1 model): 0.52 s⁻¹
kon at 250 µM (initial kinetic screening, fragment 250 μM, 15 °C, 1:1 model, read-out: ka): 21400 M⁻¹ s⁻¹
